Assay results taken from publication PMC9304066, “H2S biogenesis by cystathionine beta-synthase: mechanism of inhibition by aminooxyacetic acid and unexpected role of serine” (Cellular and Molecular Life Sciences: CMLS, 2022).

Columns and labels:
colon cancer cells = test system: colon cancer cells; design: method as in PMID 23836652, PMID 27521834, PMID 27257787; conditions: transformed cells like colon cancer cells; cited from earlier work
human skin fibroblasts = test system: human skin fibroblasts; design: method as in PMID 31481613; conditions: cited from earlier work
HEK293 cells [1] = assay: Cell proliferation (BrdU); format: cell-based, human; conditions: Ser concentrations above 3 mM, 'up to'
Method: (§1) Cell culture. The human embryonic kidney cell line HEK293 (ATCC CRL-1573) was cultured in Dulbecco’s Modified Eagle Medium (DMEM) containing 4.5 g/L glucose. The culture medium was supplemented with 10% (v/v) heat-inactivated fetal bovine serum, 2 mM Glutamax, non-essential amino acids, 100 U/ml penicillin and 100 μg/ml streptomycin. Cells were grown in a humidified incubator at 37 °C and 5% CO2 atmosphere. Cell viability and proliferation were assessed using MTT and BrdU assay, respectively, essentially as described previously.

HEK293 cells [2] = assay: Cell viability (MTT); format: cell-based, human; conditions: Ser 0.15–10 mM
Method: as §1

Row | Structure (SMILES) | Concentrations required to achieve similar level of inhibition of CBS-derived H2S biogenesis (colon cancer cells) [mM] | Concentration shutting down CBS-derived H2S biogenesis (human skin fibroblasts) [µM] | Increase of cellular proliferation (HEK293 cells [1]) | Cell viability (HEK293 cells [2])
1 | NOCC(=O)O [AOAA, aminooxyacetic acid] | 0.1 to 2 | 3 |  | 
2 | N[C@@H](CO)C(=O)O [Ser, serine] |  |  | ~ 18% | did not affect
